Measurements as given in PMC10535864, “Novel Aminopyrimidine-2,4-diones, 2-Thiopyrimidine-4-ones, and 6-Arylpteridines as Dual-Target Inhibitors of BRD4/PLK1: Design, Synthesis, Cytotoxicity, and Computational Studies” (Pharmaceuticals, 2023).

Key:
Format in all cases: cell-based
[1] = system: HT-29 colorectal adenocarcinoma cells; assay: MTT cytotoxicity assay, HT-29; conditions: MTT; for Toxicity % / viability at 0.312 µM / viability at 0.625 µM / viability at 1.25 µM / viability at 2.5 µM / viability at 5 µM / viability at 10 µM: HT29; for viability at 0.312 µM / viability at 0.625 µM / viability at 1.25 µM / viability at 2.5 µM / viability at 5 µM / viability at 10 µM / IC50: Homo sapiens, HT-29; for IC50: mean of three independent experiments ± SD, read-out: IC50 Value HT-29
Experimental: (§1) All newly synthetic compounds were tested for cytotoxicity using a six-dose MTT colorimetric assay on three cancer cell lines; namely, breast cancer cells (MDA-MB-231), colorectal adenocarcinoma cells (HT-29) and renal cancer cells (U-937). […] However, renal cancer cells (U-937) were discovered to be the least sensitive.
(§2) Using a six-dose MTT colorimetric assay, all new synthetic compounds were tested for cytotoxicity against three cancer cell lines: MDA-MB-231 breast cancer cells, HT-29 colorectal adenocarcinoma cells, and U-937 renal cancer cells. […] These cell lines were supplied by ATCC (American Type Culture Collection) via the Holding company for biological products and vaccines (VACSERA, Cairo, Egypt). The reference control used was Methotrexate. Detailed descriptions of the MTT colorimetric assay’s protocol can be found in the Supplementary file.
(§3) 1.1.In-vitro cytotoxicity screening
(§4) Using a six-dose MTT colorimetric assay, allnew synthetic compounds were tested for cytotoxicity against three cancer cell lines: MDA-MB-231 breast cancer cells,HT-29 colorectal adenocarcinoma cells, and U-937 renal […]
(§5) The cell lines were supplied by ATCC (American Type Culture Collection). The reference control used was Methotrexate. The cytotoxic activities of the examined compounds were quantified by inoculating a 96-well tissue culture plate with 1 X 10^5 cells / mL (100 uL/well) and incubating it at 37°C for 24 hours to develop a complete monolayer sheet. After forming a confluent sheet of cells, the growth medium was decanted from 96-well microtiter plates, and the cell monolayer was washed twice with wash media. Two-fold dilutions of tested samples were made in RPMI medium with 2% serum (maintenance medium), and 0.1 mL of each dilution was tested in different wells, with three wells serving as controls and receiving only maintenance medium. Following that, the plate was incubated at 37°C and examined. Cells were investigated for any physical signs of toxicity, such as partial or complete monolayer loss, rounding, shrinkage, or cell granulation. MTT solution was prepared (5mg/ml in PBS) (BIO BASIC CANADA INC), and 20 uL MTT solution was added to each well. After 5 minutes on a shaking table at150 rpm to thoroughly mix the MTT into the media, it was incubated (37°C, 5% CO2) for 4 hours to allow the MTT to be metabolized. Formazan (MTT metabolic product) was resuspended in 200 uL DMSO and shaken at 150 rpm for 5 minutes to thoroughly mix the formazan into the solvent. The optical density was measured at 560 nm, and the background was subtracted at 620 nm. Finally, the IC50 of the test compound in comparison to the reference was calculated using the GraphPad Prism software. […]

[2] = MTT cytotoxicity assay, U-937; conditions: Homo sapiens, U-937, U937, MTT;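 note: Six-dose MTT colorimetric assay on cell monolayers, formazan absorbance read at 560 nm with 620 nm background removed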
Experimental: (§6) Using a six-dose MTT colorimetric assay [44, 66], all new synthetic compounds were tested for cytotoxicity against three cancer cell lines: MDA-MB-231 breast cancer cells, HT-29 colorectal adenocarcinoma cells, and U-937 renal cancer cells. […] These cell lines were supplied by ATCC (American Type Culture Collection) via the Holding company for biological products and vaccines (VACSERA, Cairo, Egypt). The reference control used was Methotrexate.
(§7) Using a six-dose MTT colorimetric assay [44, 66], allnew synthetic compounds were tested for cytotoxicity against three cancer cell lines: MDA-MB-231 breast cancer cells,HT-29 colorectal adenocarcinoma cells, and U-937 renal
(§8) The cell lines were supplied by ATCC (American Type Culture Collection). The reference control used was Methotrexate. The cytotoxic activities of the examined compounds were quantified by inoculating a 96-well tissue culture plate with 1 X 10^5 cells / mL (100 uL/well) and incubating it at 37°C for 24 hours to develop a complete monolayer sheet. After forming a confluent sheet of cells, the growth medium was decanted from 96-well microtiter plates, and the cell monolayer was washed twice with wash media. Two-fold dilutions of tested samples were made in RPMI medium with 2% serum (maintenance medium), and 0.1 mL of each dilution was tested in different wells, with three wells serving as controls and receiving only maintenance medium. Following that, the plate was incubated at 37°C and examined. Cells were investigated for any physical signs of toxicity, such as partial or complete monolayer loss, rounding, shrinkage, or cell granulation. MTT solution was prepared (5mg/ml in PBS) (BIO BASIC CANADA INC), and 20 uL MTT solution was added to each well. After 5 minutes on a shaking table at150 rpm to thoroughly mix the MTT into the media, it was incubated (37C, 5% CO2) for 4 hours to allow the MTT to be metabolized. Formazan (MTT metabolic product) was resuspended in 200 uL DMSO and shaken at 150 rpm for 5 minutes to thoroughly mix the formazan into the solvent. The optical density was measured at 560 nm, and the background was subtracted at 620 nm. Finally, the IC50 of the test compound in comparison to the reference was calculated using the GraphPad Prism software.

[3] = system: U-937 renal cancer cells; assay: MTT cytotoxicity assay, U-937; conditions: MTT; for IC50: Homo sapiens, U-937, mean of three independent experiments ± SD, read-out: IC50 Value U-937; for Toxicity %: U937;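 for all read-outs here: Six-dose MTT colorimetric assay on cell monolayers, formazan absorbance read at 560 nm with 620 nm background removed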
Experimental: as §6, §7, §8

[4] = system: MDA-MB-231 breast cancer cells; assay: MTT cytotoxicity assay, MDA-MB-231; conditions: MDA-MB-231, MTT; for IC50 / viability at 0.312 µM / viability at 0.625 µM / viability at 1.25 µM / viability at 2.5 µM / viability at 5 µM / viability at 10 µM: Homo sapiens; for IC50: mean of three independent experiments ± SD, read-out: IC50 Value MDA-MB-231
Experimental: as §1, §2, §3, §4, §5

Row | Structure (SMILES) | Toxicity % ([1]; 0.312 uM) | Toxicity % ([1]; 0.625 uM) | Toxicity % ([1]; 1.25 uM) | Toxicity % ([1]; 2.5 uM) | Toxicity % ([1]; 5 uM) | Toxicity % ([1]; 10 uM) | viability at 0.312 µM ([1]; 0.312 uM) | viability at 0.625 µM ([1]; 0.625 uM) | viability at 1.25 µM ([1]; 1.25 uM) | viability at 2.5 µM ([1]; 2.5 uM) | viability at 5 µM ([1]; 5 uM) | viability at 10 µM ([1]; 10 uM) | IC50 [1] | viability at 0.312 µM [2] | viability at 0.625 µM [2] | viability at 1.25 µM [2] | viability at 2.5 µM [2] | viability at 5 µM [2] | viability at 10 µM [2] | IC50 [3] | other results
1 | CCn1c(N)c(/N=C(/CBr)c2ccc([N+](=O)[O-])cc2)c(=O)[nH]c1=O [Compound 5a, (E)-6-Amino-5-((2-bromo-1-(4-nitrophenyl)ethylidene)amino)-1-ethylpyrimidine-2,4(1H,3H)-dione] | 0.1292% | 0.2584% | 5.556% | 50.3% | 83.29% | 97.46% | 99.9% | 99.7% | 94.4% | 49.7% | 16.7% | 2.54% | 3.09 ± 0.01 µM | 99.6% | 98.9% | 99.6% | 89.7% | 55.1% | 12.7% | 6.08 ± 0.11 µM | Toxicity % ([3]; 0.312 uM): 0.4357%; Toxicity % ([3]; 0.625 uM): 1.144%; Toxicity % ([3]; 1.25 uM): 0.4357%; Toxicity % ([3]; 2.5 uM): 10.29%; Toxicity % ([3]; 5 uM): 44.93%; Toxicity % ([3]; 10 uM): 87.31%; IC50 [4]: 3.24 ± 0.03 µM; viability at 0.312 µM ([4]; 0.312 uM): 99.7%; viability at 0.625 µM ([4]; 0.625 uM): 99.6%; viability at 1.25 µM ([4]; 1.25 uM): 91.2%; viability at 2.5 µM ([4]; 2.5 uM): 53%; viability at 5 µM ([4]; 5 uM): 23.8%; viability at 10 µM ([4]; 10 uM): 4.21%; Toxicity % ([4]; 0.312 uM): 0.266%; Toxicity % ([4]; 0.625 uM): 0.4433%; Toxicity % ([4]; 1.25 uM): 8.821%; Toxicity % ([4]; 2.5 uM): 46.99%; Toxicity % ([4]; 5 uM): 76.2%; Toxicity % ([4]; 10 uM): 95.79%
2 | Nc1c(/N=C(/CBr)c2ccc([N+](=O)[O-])cc2)c(=O)[nH]c(=O)n1Cc1ccccc1 [Compound 5b, (E)-6-Amino-1-benzyl-5-((2-bromo-1-(4-nitrophenyl)ethylidene)amino)pyrimidine-2,4(1H,3H)-dione] | 0% | 0.1292% | 6.891% | 27.39% | 74.68% | 88.24% | 100% | 99.9% | 93.1% | 72.6% | 25.3% | 11.8% | 3.66 ± 0.05 µM | 99.9% | 99.9% | 99.6% | 99.1% | 50.3% | 16.3% | 6.29 ± 0.26 µM | Toxicity % ([3]; 0.312 uM): 0.05447%; Toxicity % ([3]; 0.625 uM): 0.1089%; Toxicity % ([3]; 1.25 uM): 0.3813%; Toxicity % ([3]; 2.5 uM): 0.8715%; Toxicity % ([3]; 5 uM): 49.73%; Toxicity % ([3]; 10 uM): 83.71%; IC50 [4]: 2.37 ± 0.06 µM; viability at 0.312 µM ([4]; 0.312 uM): 99.4%; viability at 0.625 µM ([4]; 0.625 uM): 99.4%; viability at 1.25 µM ([4]; 1.25 uM): 84.7%; viability at 2.5 µM ([4]; 2.5 uM): 45.8%; viability at 5 µM ([4]; 5 uM): 23.2%; viability at 10 µM ([4]; 10 uM): 8.07%; Toxicity % ([4]; 0.312 uM): 0.6206%; Toxicity % ([4]; 0.625 uM): 0.5762%; Toxicity % ([4]; 1.25 uM): 15.34%; Toxicity % ([4]; 2.5 uM): 54.21%; Toxicity % ([4]; 5 uM): 76.77%; Toxicity % ([4]; 10 uM): 91.93%
3 | Nc1c(/N=C(/CBr)c2ccc([N+](=O)[O-])cc2)c(=O)[nH]c(=O)n1Cc1ccccc1Cl [Compound 5c, (E)-6-Amino-5-((2-bromo-1-(4-nitrophenyl)ethylidene)amino)-1-(2-chlorobenzyl) pyrimidine-2,4(1H,3H)-dione] | 0.1292% | 0.2153% | 6.417% | 59.99% | 93.84% | 94.36% | 99.9% | 99.8% | 93.6% | 40% | 6.16% | 5.64% | 2.24 ± 0.04 µM | 99.7% | 99.5% | 99.7% | 99.3% | 48.2% | 14.3% | 6.17 ± 0.15 µM | Toxicity % ([3]; 0.312 uM): 0.3268%; Toxicity % ([3]; 0.625 uM): 0.4902%; Toxicity % ([3]; 1.25 uM): 0.2723%; Toxicity % ([3]; 2.5 uM): 0.6536%; Toxicity % ([3]; 5 uM): 51.8%; Toxicity % ([3]; 10 uM): 85.73%; IC50 [4]: 3.28 ± 0.04 µM; viability at 0.312 µM ([4]; 0.312 uM): 99.4%; viability at 0.625 µM ([4]; 0.625 uM): 98.4%; viability at 1.25 µM ([4]; 1.25 uM): 96.1%; viability at 2.5 µM ([4]; 2.5 uM): 62.4%; viability at 5 µM ([4]; 5 uM): 14.9%; viability at 10 µM ([4]; 10 uM): 5.54%; Toxicity % ([4]; 0.312 uM): 0.6206%; Toxicity % ([4]; 0.625 uM): 1.551%; Toxicity % ([4]; 1.25 uM): 3.901%; Toxicity % ([4]; 2.5 uM): 37.63%; Toxicity % ([4]; 5 uM): 85.06%; Toxicity % ([4]; 10 uM): 94.46%
